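Cells were grown in 96-well plates and exposed to each compound for 48 hours at five concentrations; endpoints were interpolated linearly between bracketing concentrations, or set to the highest concentration if not reached. GI50 is the concentration that inhibits growth by half. TGI: concentration producing complete growth inhibition.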
Columns and labels:
Assay in all cases: NCI-60 cell line screen, 48 h
HCT-116 colon = test system: HCT-116 colon
MALME-3M melanoma = test system: MALME-3M melanoma
A549 NSCLC = test system: A549 NSCLC
OVCAR-8 ovarian = test system: OVCAR-8 ovarian
SK-MEL-5 melanoma = test system: SK-MEL-5 melanoma
A498 renal = test system: A498 renal
SF-295 CNS = test system: SF-295 CNS
HCC-2998 colon = test system: HCC-2998 colon
K-562 leukemia = test system: K-562 leukemia
TK-10 renal = test system: TK-10 renal

Compound | TGI (HCT-116 colon) | TGI (MALME-3M melanoma) | TGI (A549 NSCLC) | TGI (OVCAR-8 ovarian) | TGI (SK-MEL-5 melanoma) | TGI (A498 renal) | TGI (SF-295 CNS) | TGI (HCC-2998 colon) | TGI (K-562 leukemia) | TGI (TK-10 renal) | GI50 (TK-10 renal) | GI50 (HCT-116 colon) | GI50 (A549 NSCLC) | GI50 (OVCAR-8 ovarian) | GI50 (SK-MEL-5 melanoma) | GI50 (A498 renal) | GI50 (SF-295 CNS) | GI50 (K-562 leukemia) | GI50 (MALME-3M melanoma)
CCCCCCCCCCCCSC(=S)c1c(C)[nH]n(CCCCCCCCCCCC)c1=O | > 100 µM | > 100 µM | > 100 µM | > 100 µM | > 100 µM | > 100 µM | > 100 µM | > 100 µM | > 100 µM |  |  |  |  |  |  |  |  |  | 
O=C1CS(=O)(=O)C(c2cccc(Oc3ccccc3)c2)N1C1CC1 (stereo not drawn) | > 100 µM | > 100 µM | > 100 µM | > 100 µM | 39.3 µM |  | > 100 µM | > 100 µM | > 100 µM | > 100 µM |  |  |  |  |  |  |  |  | 
Cc1cn(Cc2cn(CC3OC(n4cc(C)c(=O)[nH]c4=O)CC3O)nn2)c(=O)[nH]c1=O (stereo not drawn) | > 100 µM | > 100 µM | > 100 µM | > 100 µM | > 100 µM | > 100 µM | > 100 µM | > 100 µM |  | > 100 µM |  |  |  |  |  |  |  |  | 
CCN(CCO)CCNc1ccc(C)c2sc3ccccc3c(=O)c12 | 7.76 µM | 8.05 µM | 15.2 µM | 14.2 µM | 7.66 µM | 31.2 µM | 10.1 µM | 5.2 µM | 11.9 µM | 21.4 µM |  |  |  |  |  |  |  |  | 
O=C([CH-]C(=O)c1ccccc1)c1ccccc1.O=C([CH-]C(=O)c1ccccc1)c1ccccc1.O=C([CH-]C(=O)c1ccccc1)c1ccccc1.[Cl-].[Hf+4] | 26.1 µM |  | 86.2 µM | 77.7 µM | 31.5 µM | 63 µM | > 100 µM |  | > 100 µM | 53.8 µM | 18.7 µM | 7.33 µM | 16.7 µM | 11.5 µM | 11.1 µM | 18.6 µM | 14.9 µM | 7.11 µM | 
Cn1c2cn[nH]c(=O)c2c2ccc3ccccc3c21 | > 100 µM | > 100 µM | > 100 µM | > 100 µM | > 100 µM | 80 µM | 63.4 µM |  | > 100 µM | > 100 µM |  |  |  |  |  |  |  |  | 
O=C(O)CCCN=C(C1=C(O)C(=O)N(c2ccccc2)C1=O)c1ccccc1 | > 100 µM | > 100 µM | > 100 µM | > 100 µM | > 100 µM |  | > 100 µM | > 100 µM | > 100 µM | > 100 µM |  |  |  |  |  |  |  |  | 
O=c1[nH]c(=O)n(CCOCP(=O)(O)O)nc1Br |  | > 100 µM | > 100 µM | > 100 µM | > 100 µM | > 100 µM |  | > 100 µM |  | > 100 µM |  |  |  |  |  |  |  |  | 
Cc1cc(=O)n2c3c(c4c(cc13)c(CN(C)C)cc(=O)n4C)OC2 | > 69.5 µM | 30.4 µM | > 55.1 µM | > 66.6 µM | 45.1 µM | > 100 µM | > 72.7 µM | 35.9 µM | > 100 µM | > 88.6 µM |  |  |  |  |  |  |  |  | 
CCCCCCCCCCCCCCCCCC(=O)OCC1OC(OC)C(NC(=O)N(CCCl)N=O)C(O)C1O (stereo not drawn) |  | 78.3 µM | 52.1 µM | > 100 µM | > 100 µM |  | 32.6 µM | > 100 µM | > 100 µM | > 100 µM |  |  |  |  |  |  |  |  | 
O=c1[nH]c2cc([N+](=O)[O-])c(N/N=C/c3ccc(Cl)cc3Cl)c([N+](=O)[O-])c2[nH]1 | > 100 µM | > 100 µM | > 100 µM | > 100 µM | > 100 µM | 48.7 µM | > 100 µM |  | > 100 µM | > 100 µM |  |  |  |  |  |  |  |  | 
CC(C)(C)c1cc(-c2nc3ccc(N4CCN(CCO)CC4)cc3[nH]2)cc(C(C)(C)C)c1O |  | 2.83 µM | > 100 µM | > 100 µM | 3.14 µM | > 100 µM |  |  |  | > 100 µM | 4.69 µM |  | 3.51 µM | 6.53 µM | 1.74 µM | 6.1 µM |  |  | 1.47 µM
N=C(N)c1ccc(N=Nc2c(O)ccc3cc4c(N=Nc5ccc(C(=N)N)cc5)c(O)ccc4cc23)cc1 | > 100 µM | > 100 µM | > 100 µM | > 100 µM | > 100 µM |  | > 100 µM | > 100 µM | > 100 µM | > 100 µM |  |  |  |  |  |  |  |  | 
C/C(=C\C(=N\NC(=N)N)c1ccccc1)c1ccccc1 | 1.1 µM | 3.5 µM | 16.9 µM | 4.83 µM | 0.76 µM |  | 1.87 µM | 1.86 µM | 3.88 µM | 14.1 µM |  |  |  |  |  |  |  |  | 
O=C(NC(Cc1ccc(Cl)cc1)C(=O)O)c1ccc(I)cc1 (stereo not drawn) | > 100 µM | > 100 µM | > 100 µM | > 100 µM | > 100 µM | > 100 µM | > 100 µM |  | > 100 µM |  |  |  |  |  |  |  |  |  | 

Reference: PubChem BioAssay (NCI)
